23 compounds from patent publication US20250129027A1 (APOGEE PHARMACEUTICALS, INC., priority 2023, published 2025) can be followed below.

Data set [1] has as its target human recombinant FAAH (Homo sapiens (Human), UniProt O00519). Description: In vitro inhibition of FAAH activity (fluorescent inhibitor screening kit, AMC arachidonoyl amide). The data set is classed as biochemical. In a few lines:
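Fluorogenic kit assay: AMC arachidonoyl amide is cleaved by human recombinant FAAH, read at 340-360/450-465 nm. Percent inhibition versus non-treated control; IC50 values derived from multiple compound concentrations where tested.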

Data set [2] deals with human recombinant MAGL (Homo sapiens (Human), UniProt Q99685). The data set is described as follows: In vitro inhibition of MAGL activity (inhibitor screening kit, 4-nitrophenylacetate). The format is biochemical. To be noted: for IC50: human recombinant MAGL. In a few lines: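 Colorimetric kit assay: recombinant human MAGL hydrolyses 4-nitrophenylacetate to 4-nitrophenol, read by absorbance at 405-412 nm. Inhibition given as percentage of signal in treated versus untreated MAGL control.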

The nature of data set [3]: Aqueous solubility in PBS buffer pH 7.4 (LC-MS). The data set is classed as physicochemical. To be noted: phosphate buffer, kinetic from dmso stock, PBS buffer pH 7.4, room temperature, spiked at 100 μM from DMSO stock. As to the method: Compounds as described herewith were analyzed for their aqueous solubility.
The aqueous solubility of compounds were determined using standard protocols. To illustrate the experimental protocol, the analysis of a representative compound is described. Exemplary compound of Example 158 (MW: 380.4 g/mol) was analyzed in a buffer system at specified pH (phosphate buffer, pH 7.4). This was accomplished by spiking a DMSO stock solution of the test compound at a final concentration of 100 μM in buffer.
Solubility calculation: This is a quantitative assay. The mixture at the end of the assay is filtered by 0.22 micron syringe filter and after 5× dilution in diluent, it was analyzed versus a calibration curve using LC-MS.

The nature of data set [4]: Plasma stability (LC-MS/MS, % parent compound remaining, half-life). The data set is classed as in vitro ADME. To be noted: human plasma; for half-life at 1 μM: 37° C., 0-240 mins, read-out: Human Plasma Stability (t1/2, min); for plasma stability and/or aqueous solubility compared to reference compound URB597: see Table 5. As to the method: Exemplary compounds described herewith were assayed for plasma stability (various species).
Plasma was removed from deep freezer and allowed to thaw at room temperature (or at 37° C. if needed). Plasma was then centrifuged at 4,000 rpm at RT for 10 min and supernatant was collected and used for the assay: • Drug test tubes: 297 μL plasma/drug test tube, duplicate/drug. • Blank test tubes: 297 μL plasma/Blank test tube, duplicate, too. (Optional, if assay system is stable and consistent) • T0 plasma tube: […] X No. of total sample tubes+50 μL extra for T0 extraction. • (Note: equivalent proportion of solvent mixture as added in drug test tubes will be added before T0 extraction!)
Take out the pre-warmed plasma tubes from the 37° C. incubator. Add 3 μL of 100 μM stock solution (or, equivalent proportion of the solvent mixture to T0 plasma tube for T0 extraction) to each corresponding sample tubes in order, vortex gently (3×) to mix. Finish the sample tubes orderly and quickly, then transfer them to the Thermomixer (program & 37° C. ready), and start the Thermomixer. Record starting time on paper & start the timer for 15 min for the 1st sampling time point.
Now add the equivalent amount of solvent mixture to the T0 plasma tube, mix, and transfer 50 μL plasma to each of the T0 extracting tubes, vortex 20s and placed on ice. Vortex 10s again before centrifuging the samples at 14,000 rpm for 5 min at 4° C.
Repeat the above procedures at each time point (15, 30, 60, 120, 240 min) by transferring 50 μL plasma samples from the testing tubes to the corresponding extracting tubes, in the same order and time scheme as in the addition of the drug to the plasma samples at the beginning of the study.
• Kel=Slope of LN % PCR vs time
Half life (t½)=0.693/Kel (1)

The mark [5] stands for this setting: FAAH, values as listed in Table 5, read-out: IC50.
[6] abbreviates: human recombinant FAAH, read-out: Inhibition on FAAH activity (IC50).

≈ marks a conversion by molar mass, not a printed value. Where two headings read alike, the source gives them in different places. Some results are limits rather than exact numbers.

human recombinant MAGL, sequence (Q99685 whole entry): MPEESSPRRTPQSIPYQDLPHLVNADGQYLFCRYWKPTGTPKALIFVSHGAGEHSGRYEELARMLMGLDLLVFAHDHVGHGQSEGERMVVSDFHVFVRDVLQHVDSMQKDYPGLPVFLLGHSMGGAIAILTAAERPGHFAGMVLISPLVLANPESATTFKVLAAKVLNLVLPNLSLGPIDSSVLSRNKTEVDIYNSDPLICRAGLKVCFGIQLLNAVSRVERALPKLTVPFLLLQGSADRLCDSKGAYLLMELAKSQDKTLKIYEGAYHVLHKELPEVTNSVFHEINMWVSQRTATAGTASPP
human recombinant FAAH, sequence (O00519 whole entry): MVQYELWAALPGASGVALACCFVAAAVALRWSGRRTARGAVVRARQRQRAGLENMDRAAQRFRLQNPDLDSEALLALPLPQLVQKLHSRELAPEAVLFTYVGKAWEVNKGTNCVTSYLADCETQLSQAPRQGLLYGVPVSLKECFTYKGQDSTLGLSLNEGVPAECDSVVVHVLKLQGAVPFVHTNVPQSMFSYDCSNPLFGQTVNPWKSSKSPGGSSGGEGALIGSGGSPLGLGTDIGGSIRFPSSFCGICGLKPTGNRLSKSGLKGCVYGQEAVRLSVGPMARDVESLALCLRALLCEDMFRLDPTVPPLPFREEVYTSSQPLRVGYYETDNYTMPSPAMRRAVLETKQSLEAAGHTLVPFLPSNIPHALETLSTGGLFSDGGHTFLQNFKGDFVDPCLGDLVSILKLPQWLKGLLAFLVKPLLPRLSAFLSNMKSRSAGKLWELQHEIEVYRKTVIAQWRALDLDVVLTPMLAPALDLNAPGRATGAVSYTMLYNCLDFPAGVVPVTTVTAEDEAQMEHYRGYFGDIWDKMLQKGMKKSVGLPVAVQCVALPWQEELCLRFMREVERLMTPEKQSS

`O=C(NC1CCCCC1)Oc1cccc(-c2cncc(-c3ccco3)c2)c1` [Example 51, 3-(5-(furan-2-yl)pyridin-3-yl)phenyl cyclohexylcarbamate]: the IC50 – broadly, the concentration that inhibits the measured activity by half – in data set [1] (setting [5]) is 76.1 nM; in data set [1] (setting [6]), 76.1 nM; in data set [2] it was > 10000 nM. Moreover, the solubility (commonly the dissolved amount per volume that the medium holds) in data set [3] came to 1.4 µM (≈ 0.507 µg/mL). Also, the half-life at 1 μM in data set [4] came to 8 min.

For `O=C(NC1CCCCCC1)Oc1cccc(-c2cncc(-c3cccs3)c2)c1` [Example 64, 3-(5-(thiophen-2-yl)pyridin-3-yl)phenyl cycloheptylcarbamate], the IC50 was 39.1 nM in data set [1] (setting [5]), 39.1 nM in data set [1] (setting [6]) and > 10000 nM in data set [2]. Besides, in data set [4], the half-life at 1 μM was 24 min.

As to `COc1ccc(OC(=O)NC2CCCCCC2)cc1-c1cncc(-c2ncco2)c1` [Example 83, 4-methoxy-3-(5-(oxazol-2-yl)pyridin-3-yl)phenyl cycloheptylcarbamate], the IC50 is 111 nM in data set [1] (setting [5]), 10 to 100 nM in data set [1] (setting [6]) and > 10000 nM in data set [2]. In data set [3], this compound came in with a solubility of 16.3 µM (≈ 6.64 µg/mL). In addition, the half-life at 1 μM in data set [4] worked out at 194 min. The “plasma stability and/or aqueous solubility compared to reference compound URB597” value in data set [4] was “improved plasma stability, improved aqueous solubility, or improved plasma stability and aqueous solubility”.

As for `O=C(NC1CCCCCC1)Oc1ccc(F)c(-c2cncc(-c3ncco3)c2)c1` [Example 87, 4-fluoro-3-(5-(oxazol-2-yl)pyridin-3-yl)phenyl cycloheptylcarbamate], the IC50 in data set [1] (setting [5]) was 23.9 nM; in data set [1] (setting [6]) it was 23.9 nM; in data set [2] it was > 10000 nM. The compound also registered a solubility in data set [3] of 8.6 µM (≈ 3.4 µg/mL). Besides, in data set [4], the half-life at 1 μM was 7 min.

In the case of `O=C(NC1CCCCCC1)Oc1ccc(OC(F)(F)F)c(-c2cncc(-c3ncco3)c2)c1` [Example 91, 3-(5-(oxazol-2-yl)pyridin-3-yl)-4-(trifluoromethoxy)phenyl cycloheptylcarbamate], the IC50 in data set [1] (setting [5]) is 492 nM; in data set [1] (setting [6]), 100 to 1000 nM; in data set [2], > 10000 nM. Also, the solubility in data set [3] is 2.4 µM (≈ 1.11 µg/mL). Moreover, the half-life at 1 μM in data set [4] turned out to be 14 min.

As to `O=C(Oc1cccc(-c2cncc(-c3nnco3)c2)c1)N1CC2(CCC2)C1` [Example 146, 3-(5-(1,3,4-oxadiazol-2-yl)pyridin-3-yl)phenyl 2-azaspiro[3.3]heptane-2-carboxylate], the IC50 in data set [1] (setting [5]) is 401 nM; in data set [1] (setting [6]), 401 nM; in data set [2], > 10000 nM. The amount in solution in data set [3] (solubility) came to 82.7 µM (≈ 30 µg/mL). Moreover, the half-life at 1 μM in data set [4] was determined as 186 min. The “plasma stability and/or aqueous solubility compared to reference compound URB597” value in data set [4] is “improved plasma stability, improved aqueous solubility, or improved plasma stability and aqueous solubility”.

For `O=C(NC1CCCCCC1)Oc1cc(O)cc(-c2cncc(-c3nnco3)c2)c1` [Example 165, 3-(5-(1,3,4-oxadiazol-2-yl)pyridin-3-yl)-5-hydroxyphenyl cycloheptylcarbamate], the results for the IC50 in data set [1] (setting [5]), in data set [1] (setting [6]) and in data set [2] were 25.8 nM, 25.8 nM and > 10000 nM, respectively. The compound further returned a solubility in data set [3] of 22.6 µM (≈ 8.91 µg/mL). The half-life at 1 μM in data set [4] came to 28 min.

On to `COc1cc(OC(=O)NC2CCCCCC2)cc(-c2cncc(-c3nnco3)c2)c1` [Example 179, 3-(5-(1,3,4-oxadiazol-2-yl)pyridin-3-yl)-5-methoxyphenyl cycloheptylcarbamate], for which the values for the half-inhibitory concentration (IC50) in data set [1] (setting [5]), in data set [1] (setting [6]) and in data set [2] were 91.1 nM, 91.1 nM and 10000 to 50000 nM, respectively. The compound further yielded a solubility in data set [3] of 9.2 µM (≈ 3.76 µg/mL). The half-life at 1 μM in data set [4] turned out to be 18 min.

Take `O=C(NC1CCCCCC1)Oc1ccc(F)c(-c2cncc(-c3nnco3)c2)c1` [Example 194, 3-(5-(1,3,4-oxadiazol-2-yl)pyridin-3-yl)-4-fluorophenyl cycloheptylcarbamate]: the results for the IC50 in data set [1] (setting [5]), in data set [1] (setting [6]) and in data set [2] were 49.1 nM, 49.1 nM and > 10000 nM, respectively. In addition, in data set [4], the half-life at 1 μM stood at 41 min. Further, the “plasma stability and/or aqueous solubility compared to reference compound URB597” value in data set [4] is “improved plasma stability, improved aqueous solubility, or improved plasma stability and aqueous solubility”.

Turning to `COc1ccc(OC(=O)NC2CCCC2)cc1-c1cncc(-c2nnn[nH]2)c1` [Example 253, 3-(5-(1H-tetrazol-5-yl)pyridin-3-yl)-4-methoxyphenyl cyclopentylcarbamate], the IC50 in data set [1] (setting [6]) was > 1000 nM; in data set [2], > 10000 nM.

For the compound `COc1ccc(OC(=O)NC2CCCCC2)cc1-c1cncc(-c2nnn[nH]2)c1` [Example 254, 3-(5-(1H-tetrazol-5-yl)pyridin-3-yl)-4-methoxyphenyl cyclohexylcarbamate], the results for the IC50 in data set [1] (setting [6]) and in data set [2] were > 1000 nM and > 10000 nM, respectively.

On to `COc1ccc(OC(=O)NC2CCCCCC2)cc1-c1cncc(-c2nnn[nH]2)c1` [Example 255, 3-(5-(1H-tetrazol-5-yl)pyridin-3-yl)-4-methoxyphenyl cycloheptylcarbamate], for which the IC50 in data set [1] (setting [6]) was > 1000 nM; in data set [2] it was > 10000 nM.

With `O=C(NCC1CCCCC1)Oc1cccc(-c2cc(-c3nnco3)ccn2)c1` [Example 257, 3-(4-(1,3,4-oxadiazol-2-yl)pyridin-2-yl)phenyl (cyclohexylmethyl)carbamate], the IC50 in data set [1] (setting [6]) is 10 to 100 nM; in data set [2] it was > 10000 nM.

On to `O=C(NCc1ccccc1)Oc1cccc(-c2cc(-c3nnco3)ccn2)c1` [Example 258, 3-(4-(1,3,4-oxadiazol-2-yl)pyridin-2-yl)phenyl benzylcarbamate], for which the concentration for half-maximal inhibition (IC50) in data set [1] (setting [6]) is 100 to 1000 nM; in data set [2], > 10000 nM.

Turning to `O=C(NC1CCCC1)Oc1cccc(-c2cc(-c3nnco3)ccn2)c1` [Example 259, 3-(4-(1,3,4-oxadiazol-2-yl)pyridin-2-yl)phenyl cyclopentylcarbamate], the IC50 in data set [1] (setting [6]) was 100 to 1000 nM; in data set [2], > 10000 nM.

For `CC1CCC(NC(=O)Oc2cccc(-c3cc(-c4nnco4)ccn3)c2)CC1` (stereo not drawn) [Example 261, 3-(4-(1,3,4-oxadiazol-2-yl)pyridin-2-yl)phenyl (4-methylcyclohexyl)carbamate], the IC50 in data set [1] (setting [6]) is 100 to 1000 nM; in data set [2], > 1000 nM.

On to `O=C(NC1CCCCCC1)Oc1cccc(-c2cc(-c3nnco3)ccn2)c1` [Example 262, 3-(4-(1,3,4-oxadiazol-2-yl)pyridin-2-yl)phenyl cycloheptylcarbamate], for which the IC50 in data set [1] (setting [6]) was 10 to 100 nM; in data set [2], > 1000 nM.

Consider `CCCCCCCCNC(=O)Oc1cccc(-c2cncc(-c3nnco3)n2)c1` [Example 263, 3-(6-(1,3,4-oxadiazol-2-yl)pyrazin-2-yl)phenyl octylcarbamate], for which the IC50 in data set [1] (setting [6]) was in the range of 1 to 10 nM; in data set [2], 1000 to 10000 nM.

Consider `O=C(NCC1CCCCC1)Oc1cccc(-c2cncc(-c3nnco3)n2)c1` [Example 264, 3-(6-(1,3,4-oxadiazol-2-yl)pyrazin-2-yl)phenyl (cyclohexylmethyl)carbamate], for which the IC50 in data set [1] (setting [6]) was 10 to 100 nM; in data set [2], ~10000 nM.

Consider `O=C(NCc1ccccc1)Oc1cccc(-c2cncc(-c3nnco3)n2)c1` [Example 265, 3-(6-(1,3,4-oxadiazol-2-yl)pyrazin-2-yl)phenyl benzylcarbamate], for which the IC50 is 100 to 1000 nM in data set [1] (setting [6]) and > 10000 nM in data set [2].

Consider `O=C(NC1CCCC1)Oc1cccc(-c2cncc(-c3nnco3)n2)c1` [Example 266, 3-(6-(1,3,4-oxadiazol-2-yl)pyrazin-2-yl)phenyl cyclopentylcarbamate], for which the IC50 in data set [1] (setting [6]) fell in the range of 10 to 100 nM; in data set [2], 1000 to 10000 nM.

With `O=C(NC1CCCCCC1)Oc1cccc(-c2cncc(-c3nnco3)n2)c1` [Example 268, 3-(6-(1,3,4-oxadiazol-2-yl)pyrazin-2-yl)phenyl cycloheptylcarbamate], the IC50 in data set [1] (setting [6]) was 10 to 100 nM; in data set [2] it was 1000 to 10000 nM.

Consider `O=C(Nc1cnccc1Cl)N1CCN(Cc2ccc3c(c2)OC(F)(F)O3)CC1` [JNJ-42165279, reference compound], for which the IC50 in data set [1] (setting [6]) was 106 nM; in data set [2], > 50000 nM. Moreover, the “fold-selectivity over MAGL (selectivity index)” value in data set [2] (FAAH over MAGL) was 473 times.
